{"source": "paper PMC8399023", "about": "(Molecules, 2021)", "settings": "24 h, pH 7.4", "data": [{"smiles": "CC(=O)N1CCC(NC(=O)NC23CC4CC(CC(C4)C2)C3)CC1", "note": "[AR9281]", "values": [{"measurement": "Solubility", "result": 277, "unit": "µg/mL"}]}]}
